Data as given in patent US7928107B2, “Quinazolines useful as modulators of ion channels” (Vertex Pharmaceuticals Incorporated, priority 2004, dated 2011).

What follows are compounds tested against NaV 1.8 channel (Homo sapiens, UniProt Q9Y5Y9) (assay: Activity against NaV 1.8 channel (optical membrane potential assay)).
NaV 1.8 channel, sequence (Q9Y5Y9 whole entry): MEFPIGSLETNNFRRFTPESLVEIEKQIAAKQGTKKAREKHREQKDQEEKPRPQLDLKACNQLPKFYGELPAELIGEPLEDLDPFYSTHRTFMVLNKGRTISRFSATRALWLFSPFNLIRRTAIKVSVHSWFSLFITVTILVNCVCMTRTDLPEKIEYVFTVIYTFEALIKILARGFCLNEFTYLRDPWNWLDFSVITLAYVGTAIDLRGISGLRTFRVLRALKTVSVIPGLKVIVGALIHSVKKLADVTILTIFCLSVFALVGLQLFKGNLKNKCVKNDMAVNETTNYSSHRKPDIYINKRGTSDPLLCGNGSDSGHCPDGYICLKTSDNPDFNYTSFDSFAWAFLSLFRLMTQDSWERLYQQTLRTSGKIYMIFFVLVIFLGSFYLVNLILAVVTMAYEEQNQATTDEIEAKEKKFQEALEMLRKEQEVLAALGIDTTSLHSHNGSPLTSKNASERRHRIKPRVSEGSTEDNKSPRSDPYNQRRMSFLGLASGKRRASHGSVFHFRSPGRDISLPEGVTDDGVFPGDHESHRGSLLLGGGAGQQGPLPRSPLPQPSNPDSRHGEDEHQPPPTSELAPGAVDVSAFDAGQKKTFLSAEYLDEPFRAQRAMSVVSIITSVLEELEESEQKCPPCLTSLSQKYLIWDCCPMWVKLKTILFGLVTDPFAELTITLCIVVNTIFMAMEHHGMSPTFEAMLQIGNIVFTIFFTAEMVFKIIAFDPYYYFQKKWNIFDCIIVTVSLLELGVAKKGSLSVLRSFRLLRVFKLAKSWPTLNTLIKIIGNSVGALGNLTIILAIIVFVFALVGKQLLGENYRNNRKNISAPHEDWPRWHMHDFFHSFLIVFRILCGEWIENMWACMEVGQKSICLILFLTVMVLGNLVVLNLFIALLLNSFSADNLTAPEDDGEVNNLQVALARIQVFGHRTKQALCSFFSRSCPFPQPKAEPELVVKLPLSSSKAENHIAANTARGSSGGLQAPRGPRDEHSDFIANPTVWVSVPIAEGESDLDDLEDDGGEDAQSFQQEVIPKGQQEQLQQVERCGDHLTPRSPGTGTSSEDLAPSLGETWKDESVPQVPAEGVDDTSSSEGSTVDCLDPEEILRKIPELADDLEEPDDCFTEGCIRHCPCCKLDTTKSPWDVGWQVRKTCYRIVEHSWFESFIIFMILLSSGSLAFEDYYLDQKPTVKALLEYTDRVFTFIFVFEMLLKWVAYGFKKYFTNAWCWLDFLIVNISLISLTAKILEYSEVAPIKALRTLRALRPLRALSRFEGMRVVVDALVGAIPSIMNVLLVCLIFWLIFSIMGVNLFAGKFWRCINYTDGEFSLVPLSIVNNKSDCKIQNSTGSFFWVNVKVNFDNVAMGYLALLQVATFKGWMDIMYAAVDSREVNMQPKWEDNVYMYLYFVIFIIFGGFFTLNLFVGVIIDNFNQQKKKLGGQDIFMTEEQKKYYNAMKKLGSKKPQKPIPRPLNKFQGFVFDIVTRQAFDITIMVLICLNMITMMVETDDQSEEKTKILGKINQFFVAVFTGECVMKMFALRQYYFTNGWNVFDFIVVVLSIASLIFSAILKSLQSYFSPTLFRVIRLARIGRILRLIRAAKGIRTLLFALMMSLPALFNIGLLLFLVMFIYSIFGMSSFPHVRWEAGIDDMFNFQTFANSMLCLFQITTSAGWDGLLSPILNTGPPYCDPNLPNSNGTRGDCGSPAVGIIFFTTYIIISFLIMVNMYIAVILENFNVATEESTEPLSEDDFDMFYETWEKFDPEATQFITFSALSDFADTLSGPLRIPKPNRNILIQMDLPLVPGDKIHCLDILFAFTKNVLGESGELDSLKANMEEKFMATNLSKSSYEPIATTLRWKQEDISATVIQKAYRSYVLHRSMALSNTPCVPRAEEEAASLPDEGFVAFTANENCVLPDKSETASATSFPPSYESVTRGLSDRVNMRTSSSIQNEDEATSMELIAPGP
Type: cell-based
Procedure: Compounds of the invention are useful as antagonists of voltage-gated sodium ion channels. Antagonist properties of test compounds were assessed as follows. Cells expressing the NaV of interest were placed into microtiter plates. After an incubation period, the cells were stained with fluorescent dyes sensitive to the transmembrane potential. The test compounds were added to the microtiter plate. The cells were stimulated with either a chemical or electrical means to evoke a NaV dependent membrane potential change from unblocked channels, which was detected and measured with trans-membrane potential-sensitive dyes. Antagonists were detected as a decreased membrane potential response to the stimulus. The optical membrane potential assay utilized voltage-sensitive FRET sensors described by Gonzalez and Tsien (See, Gonzalez, J. E. and R. Y. Tsien (1995) “Voltage sensing by fluorescence resonance energy transfer in single cells” Biophys J 69(4): 1272-80, and Gonzalez, J. E. and R. Y. Tsien (1997) “Improved indicators of cell membrane potential that use fluorescence resonance energy transfer” Chem Biol 4(4): 269-77) in combination with instrumentation for measuring fluorescence changes such as the Voltage/Ion Probe Reader (VIPR®) (See, Gonzalez, J. E., K. Oades, et al. (1999) “Cell-based assays and instrumentation for screening ion-channel targets” Drug Discov Today 4(9): 431-439).
24 hours before the assay on VIPR, CHO cells endogenously expressing a NaV1.2 type voltage-gated NaV are seeded in 96-well poly-lysine coated plates at 60,000 cells per well. Other subtypes are performed in an analogous mode in a cell line expressing the NaV of interest. • 1) On the day of the assay, medium is aspirated and cells are washed twice with 225 μL of Bath Solution #2 (BS#2). • 2) A 15 uM CC2-DMPE solution is prepared by mixing 5 mM coumarin stock solution with 10% Pluronic 127 1:1 and then dissolving the mix in the appropriate volume of BS#2. • 3) After bath solution is removed from the 96-well plates, the cells are loaded with 80 μL of the CC2-DMPE solution. Plates are incubated in the dark for 30 minutes at room temperature. • 4) While the cells are being stained with coumarin, a […] solution in BS#2 is prepared. In addition to DiSBAC2(3), this solution should contain 0.75 mM ABSCl and […] (prepared from 10 mM EtOH stock, Sigma #V-5754). • 5) After 30 minutes, CC2-DMPE is removed and the cells are washed twice with 225 μL of BS#2. As before, the residual volume should be 40 μL. • 6) Upon removing the bath, the cells are loaded with 80 μL of the DiSBAC2(3) solution, after which test compound, dissolved in DMSO, is added to achieve the desired test concentration to each well from the drug addition plate and mixed thoroughly. The volume in the well should be roughly 121 μL. The cells are then incubated for 20-30 minutes. • 7) Once the incubation is complete, the cells are ready to be assayed on VIPR® with a sodium add back protocol. 120 μL of Bath solution #1 is added to stimulate the NaV dependent depolarization. […] was used as an antagonist positive control for block of the NaV channel.
Data are analyzed and reported as normalized ratios of background-subtracted emission intensities measured in the 460 nm and 580 nm channels. Background intensities are then subtracted from each assay channel. Background intensities are obtained by measuring the emission intensities during the same time periods from identically treated assay wells in which there are no cells. The response as a function of time is then reported as the ratios obtained using the following formula: […]
The data is further reduced by calculating the initial (Ri) and final (Rf) ratios. These are the average ratio values during part or all of the pre-stimulation period, and during sample points during the stimulation period. The response to the stimulus R=Rf/Ri is then calculated. […]
In the case of `Cc1ccc2c(N3CCN(C(=O)C(C)(C)O)CC3)nc(-c3ccccc3O)nc2c1` [Example 108, 2-Hydroxy-1-(4-(2-(2-hydroxyphenyl)-7-methylquinazolin-4-yl)piperazin-1-yl)-2-methylpropan-1-one], the IC50 is reported as 2 to 10 µM. For `Cc1ccc2c(N3CCN(C(=O)O[C@H]4CCOC4)CC3CO)nc(-c3ccccc3O)nc2c1` (stereo partly drawn) [Example 119, (S)-3-Hydroxymethyl-4-[2-(2-hydroxyphenyl)-7-methyl-quinazolin-4-yl]-piperazine-1-carboxylic acid tetrahydro-furan-3-yl ester], the IC50 was > 10 µM. `Cc1ccc2c(N3CCC[C@H](CNC(=O)O[C@H]4CCOC4)C3)nc(-c3ccccc3O)nc2c1` [Example 217, (S)-Tetrahydrofuran-3-yl ((R)-1-(2-(2-hydroxyphenyl)-7-methylquinazolin-4-yl)piperidin-3-yl)methylcarbamate] was tested, and the IC50 was > 10 µM. With `CC[C@@H](C)[C@@H](O)C(=O)N1CCN(c2nc(-c3ccccc3O)nc3cc(C)ccc23)CC1` [Example 176, (2R,3R)-2-Hydroxy-1-(4-(2-(2-hydroxyphenyl)-7-methylquinazolin-4-yl)piperazin-1-yl)-3-methylpentan-1-one] the IC50 was > 10 µM. With `Cc1ccc2c(N3CC[C@H](CNC(=O)O[C@@H]4CCOC4)C3)nc(-c3ccccc3O)nc2c1` [Example 306, (R)-Tetrahydrofuran-3-yl ((R)-1-(2-(2-hydroxyphenyl)-7-methylquinazolin-4-yl)pyrrolidin-3-yl)methylcarbamate] the IC50 was > 10 µM. `Cc1ccc2c(N3CCC(NC(=O)OCC4CCOC4)CC3)nc(-c3ccccc3O)nc2c1` (stereo not drawn) [Example 275] gave an IC50 of 2 to 10 µM. With `O=C(OCC1CCCCO1)N1CCN(c2nc(-c3ccccc3O)nc3ccc(F)cc23)CC1` (stereo not drawn) [Example 160, (Tetrahydro-2H-pyran-2-yl)methyl 4-(6-fluoro-2-(2-hydroxyphenyl)quinazolin-4-yl)piperazine-1-carboxylate] the IC50 was > 10 µM. `Cc1ccc2c(N3CCN(C(=O)C(O)CC(C)C)CC3)nc(-c3ccccc3O)nc2c1` (stereo not drawn) [Example 180] gave an IC50 of 2 to 10 µM. With `O=C(OCc1ccncc1)N1CCN(c2nc(-c3ccccc3O)nc3ccccc23)CC1` [Example 116, (Pyridin-4-yl)methyl 4-(2-(2-hydroxyphenyl)quinazolin-4-yl)piperazine-1-carboxylate] the IC50 was 2 to 10 µM. For `Cc1ccc2c(N3CCC(NC(=O)CCc4cccnc4)CC3)nc(-c3ccccc3O)nc2c1` [Example 225, N-{1-[2-(2-Hydroxy-phenyl)-7-methyl-quinazolin-4-yl]-piperidin-4-yl}-3-pyridin-3-yl-propionamide], the IC50 was > 10 µM. For `Cc1ccc2c(N3CCC[C@@H](NC(=O)O[C@@H]4CCOC4)C3)nc(-c3ccccc3O)nc2c1` [Example 207, (R)-Tetrahydrofuran-3-yl (R)-1-(2-(2-hydroxyphenyl)-7-methylquinazolin-4-yl)piperidin-3-ylcarbamate], the IC50 was < 2 µM. With `Cc1ccc2c(N3CCC[C@@H](CNC(=O)OC(C)C)C3)nc(-c3ccccc3O)nc2c1` [Example 255, Isopropyl ((S)-1-(2-(2-hydroxyphenyl)-7-methylquinazolin-4-yl)piperidin-3-yl)methylcarbamate] the IC50 was > 10 µM. Compound `Cc1ccc2c(N3CCC[C@@H](NC(=O)[C@H]4CCCO4)C3)nc(-c3ccccc3O)nc2c1` [Example 206, (2R)-Tetrahydro-N—((R)-1-(2-(2-hydroxyphenyl)-7-methylquinazolin-4-yl)piperidin-3-yl)furan-2-carboxamide] has an IC50 of 2 to 10 µM. In the case of `Cc1ccc2c(N3CC[C@H](NC(=O)O[C@H]4CCOC4)C3)nc(-c3ccccc3O)nc2c1` [Example 304, (S,S)-{1-[2-(2-Hydroxy-phenyl)-7-methyl-quinazolin-4-yl]-pyrrolidin-3-yl}-carbamic acid tetrahydro-furan-3-yl ester], the IC50 is reported as > 10 µM. `Cc1ccc2c(N3CCC(NC(=O)CC4CCOCC4)CC3)nc(-c3ccccc3O)nc2c1` [Example 221, 2-(Tetrahydro-2H-pyran-4-yl)-N-(1-(2-(2-hydroxyphenyl)-7-methylquinazolin-4-yl)piperidin-4-yl)acetamide] was tested, and the IC50 was > 10 µM. In the case of `CCC(O)(CC)C(=O)N1CCN(c2nc(-c3ccccc3O)nc3ccccc23)CC1` [Example 115, 2-Ethyl-2-hydroxy-1-(4-(2-(2-hydroxyphenyl)quinazolin-4-yl)piperazin-1-yl)butan-1-one], the IC50 is reported as > 10 µM. With `Cc1ccc2c(N3CCN(C(=O)OCc4cccc5c4OCO5)CC3)nc(-c3ccccc3O)nc2c1` [Example 103, (Benzo[d][1,3]dioxol-7-yl)methyl 4-(2-(2-hydroxyphenyl)-7-methylquinazolin-4-yl)piperazine-1-carboxylate] the IC50 was > 10 µM. `Cc1ccc2c(N3CCN(C(=O)[C@H](O)CC(C)(C)F)CC3)nc(-c3ccccc3O)nc2c1` [Example 125, (R)-4-Fluoro-2-hydroxy-1-{4-[2-(2-hydroxy-phenyl)-7-methyl-quinazolin-4-yl]-piperazin-1-yl}-4-methyl-pentan-1-one] was tested, and the IC50 was > 10 µM. With `Cc1ccc2c(N3CC(CNC(=O)C4CCCO4)C3)nc(-c3ccccc3O)nc2c1` (stereo not drawn) [Example 417] the IC50 was > 10 µM. In the case of `CCCOC(=O)NC[C@@H]1CCN(c2nc(-c3ccccc3O)nc3ccc(F)cc23)C1` [Example 374, Propyl ((S)-1-(6-fluoro-2-(2-hydroxyphenyl)quinazolin-4-yl)pyrrolidin-3-yl)methylcarbamate], the IC50 is reported as > 10 µM. With `Cc1ccc2c(N3CCN(C(=O)C(C)(O)C(F)(F)F)CC3)nc(-c3ccccc3O)nc2c1` (stereo not drawn) [Example 110, 2-(Trifluoromethyl)-2-hydroxy-1-(4-(2-(2-hydroxyphenyl)-7-methylquinazolin-4-yl)piperazin-1-yl)propan-1-one] the IC50 was > 10 µM. Compound `O=C(C1CC1)N1CCN(c2nc(-c3ccccc3O)nc3ccc(F)cc23)CC1` [Example 192] has an IC50 of 2 to 10 µM. In the case of `CC(C)C[C@@H](O)C(=O)N1CCN(c2nc(-c3c(O)cccc3Cl)nc3ccccc23)CC1` [Example 146, (R)-1-(4-(2-(2-Chloro-6-hydroxyphenyl)quinazolin-4-yl)piperazin-1-yl)-2-hydroxy-4-methylpentan-1-one], the IC50 is reported as > 10 µM. In the case of `Cc1ccc2c(N3CC[C@@H](NC(=O)C4C(C)(C)C4(C)C)C3)nc(-c3ccccc3O)nc2c1` [Example 340, N—((R)-1-(2-(2-Hydroxyphenyl)-7-methylquinazolin-4-yl)pyrrolidin-3-yl)-2,2,3,3-tetramethylcyclopropanecarboxamide], the IC50 is reported as < 2 µM. `Cc1ccc2c(N3CCN(C(=O)[C@H](O)CC(C)C)CC3)nc(-c3c(C)cccc3O)nc2c1` [Example 150, (R)-2-Hydroxy-1-(4-(2-(2-hydroxy-6-methylphenyl)-7-methylquinazolin-4-yl)piperazin-1-yl)-4-methylpentan-1-one] was tested, and the IC50 was > 10 µM. With `Cc1ccc2c(N3CCC[C@H](CNC(=O)OCC(C)C)C3)nc(-c3ccccc3O)nc2c1` [Example 253, Isobutyl ((R)-1-(2-(2-hydroxyphenyl)-7-methylquinazolin-4-yl)piperidin-3-yl)methylcarbamate] the IC50 was > 10 µM. For `Cc1ccc2c(N3CC[C@@H](CNC(=O)[C@H]4CCCO4)C3)nc(-c3ccccc3O)nc2c1` [Example 310, (2R)-Tetrahydro-N—(((S)-1-(2-(2-hydroxyphenyl)-7-methylquinazolin-4-yl)pyrrolidin-3-yl)methyl)furan-2-carboxamide], the IC50 was 2 to 10 µM.
